In patent US20180111913A1, “SUBSTITUTED BENZOFURAN DERIVATIVES AS NOVEL ANTIMYCOBACTERIAL AGENTS” (priority 2015, published 2018):
≈ marks a conversion by molar mass, not a printed value. Like-named read-outs stand apart in the source and are kept apart here.

Experiments:
[1] = test system: Mtb strain mc^27000; experiment: microbe, parasite or virus in culture; assay type: cell-based, Mycobacterium tuberculosis; conditions: Mtb mc^27000, liquid medium, 96-well plates, read-out: MIC
[2] = biological target: Mtb Pks13-TE domain (wild-type) (Mycobacterium tuberculosis, UniProt I6X8D2); experiment: biochemical; assay type: biochemical; conditions: Pks13-TE, 20 μM 4-MUH; read-out: IC50
Sequence of Mtb Pks13-TE domain (wild-type) (I6X8D2 1451-1733): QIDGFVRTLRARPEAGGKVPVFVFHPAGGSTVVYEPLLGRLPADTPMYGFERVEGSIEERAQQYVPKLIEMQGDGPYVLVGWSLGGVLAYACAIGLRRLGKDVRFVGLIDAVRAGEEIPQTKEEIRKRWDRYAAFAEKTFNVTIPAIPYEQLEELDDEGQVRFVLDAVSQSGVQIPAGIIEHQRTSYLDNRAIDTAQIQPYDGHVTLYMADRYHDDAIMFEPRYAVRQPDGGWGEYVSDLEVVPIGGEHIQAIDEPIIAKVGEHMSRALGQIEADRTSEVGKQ

SMILES	MIC [1]	IC50 [2]	MIC ([1]; Mycobacterium tuberculosis)
CCOC(=O)c1c(-c2ccccc2)oc2ccc(O)c(CCN3CCCC(O)C3)c12 (centres unmarked) [compound 151]	>20 µM	10000 nM	–
CCOC(=O)CCCC1CCN(CCCc2c(O)ccc3oc(-c4ccccc4)c(C(=O)OCC)c23)C1 (centres unmarked) [compound 161]	1.0 µM (≈ 0.508 µg/mL)	800 nM	–
CCOC(=O)c1c(-c2ccccc2)oc2ccc(O)c(CCCN3CCC(CCCO)C3)c12 (centres unmarked) [compound 162]	–	2700 nM	2.5 µM (≈ 1.13 µg/mL)
CCOC(=O)c1c(-c2ccccc2)oc2ccc(O)c(CCCN3CCC3)c12 [compound 165]	–	800 nM	0.08 µM (≈ 0.0304 µg/mL)
CCOC(=O)c1c(-c2ccccc2)oc2ccc(O)c(CCCN3CCC(CO)CC3)c12 [compound 166]	–	500 nM	6.1 µM (≈ 2.67 µg/mL)
CCOC(=O)/C=C/CC1CCN(CCCc2c(O)ccc3oc(-c4ccccc4)c(C(=O)OCC)c23)C1 (centres unmarked) [compound 171]	–	500 nM	2.7 µM (≈ 1.37 µg/mL)
CCOC(=O)CCCC1CCN(CCCc2c(O)ccc3oc(-c4ccccc4)c(C(=O)OCC)c23)C1 (centres unmarked) [compound 172]	–	700 nM	2.9 µM (≈ 1.47 µg/mL)
CCOC(=O)c1c(-c2ccccc2)oc2ccc(O)c(CCCN3CCSC3C)c12 (centres unmarked) [compound 174]	–	1250 nM	4.7 µM (≈ 2 µg/mL)
CCOC(=O)c1c(-c2ccccc2)oc2ccc(O)c(CCCN3CC[C@@H](O)C3)c12 [compound 175]	–	950 nM	6.1 µM (≈ 2.5 µg/mL)
CCOC(=O)c1c(-c2ccccc2)oc2ccc(O)c(CCCN3CC[C@H](O)C3)c12 [compound 186]	–	620 nM	10 µM (≈ 4.09 µg/mL)
CCOC(=O)c1c(-c2ccccc2)oc2ccc(O)c(CCCN3CC(F)C3)c12 [compound 199]	–	2500 nM	1.2 µM (≈ 0.477 µg/mL)
CNC(=O)c1c(-c2ccccc2)oc2ccc(O)c(CCCN3CCC3)c12 [compound 200]	–	4400 nM	0.6 µM (≈ 0.219 µg/mL)
CCOC(=O)c1c(-c2ccc(O)cc2)oc2ccc(O)c(CCCN3CCC3)c12 [compound 201]	–	2100 nM	< 0.08 µM
CNC(=O)c1c(-c2ccc(O)cc2)oc2ccc(O)c(CCCN3CCC3)c12 [compound 202]	–	1600 nM	15 µM (≈ 5.71 µg/mL)
CC(C)NCCc1c(O)ccc2oc(-c3ccc(O)cc3)c(C(=O)N(C)C)c12 [compound 209]	0.45 µM (≈ 0.172 µg/mL)	1800 nM	–
CCOC(=O)c1c(-c2ccccc2)oc2ccc(O)c(CCCN3CC[C@@H]3CO)c12 [compound 212]	–	1940 nM	1.1 µM (≈ 0.45 µg/mL)
CCOC(=O)c1c(-c2ccccc2)oc2ccc(O)c(CCCN3CC[C@H]3CO)c12 [compound 213]	0.97 µM (≈ 0.397 µg/mL)	2300 nM	–
CCOC(=O)c1c(-c2ccccc2)oc2ccc(O)c(CCN3CCC(C#N)CC3)c12 [compound 228]	–	3600 nM	5 µM (≈ 2.09 µg/mL)
CCOC(=O)c1c(-c2ccccc2)oc2ccc(O)c(CCN3CCOCC3)c12 [compound 229]	–	5800 nM	3.2 µM (≈ 1.27 µg/mL)
CNC(=O)c1c(-c2ccccc2)oc2ccc(O)c(CCN3CC[C@H](Br)C3)c12 [compound 231]	–	5000 nM	8 µM (≈ 3.55 µg/mL)
CC[C@H](CO)NCCc1c(O)ccc2oc(-c3ccccc3)c(C(=O)NC)c12 [compound 234]	–	5300 nM	> 20 µM
CC[C@@H](CO)NCCc1c(O)ccc2oc(-c3ccccc3)c(C(=O)NC)c12 [compound 235]	–	2300 nM	> 40 µM
CCOC(=O)c1c(-c2ccccc2)oc2ccc(O)c(CCN3CCCC3C(=O)O)c12 (centres unmarked) [compound 244]	–	> 40000 nM	20 to 40 µM (≈ 8.47 to 16.9 µg/mL)
CCOC(=O)c1c(-c2ccccc2)oc2ccc(O)c(CCN[C@@H](Cc3c[nH]cn3)C(=O)O)c12 [compound 245]	–	2700 nM	> 40 µM
CNC(=O)c1c(-c2ccc(F)cc2)oc2cc(O)cc(CCN[C@H](CO)Cc3cnc[nH]3)c12 [compound 261]	–	5000 nM	5 µM (≈ 2.26 µg/mL)
